In patent US20250019652A1, “PRODUCTION METHOD FOR SHEET-LIKE RETINAL TISSUE” (RIKEN, priority 2021, published 2025):

How the values were obtained:
Format in all cases: cell-based, human
[1] = system: single cells dispersed from KhES-1- and 1231A3-derived aggregates; experiment: Aggregate proliferation-promoting factor: aggregate area in suspension culture with Y-27632 (Example 2); conditions: SAG 300 nM or CHIR99021 3 μM in addition to 10 μM Y-27632; Day 1, 7, 14
Description: The aggregates of Day 20 (1231A3) and Day 27 (KhES-1) from initiation of the suspension culture prepared as in Example 1 were washed with PBS, and a neuronal cell dispersion solution (manufactured by FUJIFILM Wako Pure Chemical Corp.) was added. After incubation at 37° C., they were dispersed into single cells by pipetting. These cells were suspended in 100 μL of a serum-free medium containing 10 μM Y-27632 (FUJIFILM Wako Pure Chemical Corp.) so as to become 2 to 5×10^5 cells per well of a non-cell adhesive 96-well culture plate (trade name: PrimeSurface 96-well V-bottom plate, manufactured by Sumitomo Bakelite Co., Ltd.), and suspension-cultured at 37° C. and 5% CO2. […] The reformed states of the aggregates were observed under a bright field microscope and a fluorescence microscope (BZ-X810 manufactured by Keyence Corp.) on Day 1, Day 7, and Day 14 after suspension culture for aggregate reforming. The areas of the aggregates were measured in Image J. The results of the KhES-1-derived cells are shown in FIG. 6 (an average value from 12 […] measured). The results of the 1231A3-derived cells in which the reformed states of the aggregates of Day 1 after suspension culture were observed are shown in FIG. 7.

[2] = system: retinal cells (NR) dispersed into single cells (KhES-1-derived); experiment: Seeding onto Transwell: confirmation of effect of CHIR99021 (Example 9); conditions: CHIR99021 5 μM or 3 μM with Y-27632 (and SAG); Day 14
Description: (§1) The aggregates of Days 15 to 30 from initiation of the suspension culture prepared as in Example 1 were washed with PBS, and a neuronal cell dispersion solution (manufactured by FUJIFILM Wako Pure Chemical Corp.) was added. After incubation at 37° C., they were dispersed into single cells by pipetting.
When cell sheets obtained on Culture Day 14 for aggregate reforming were observed, it was confirmed that the cells were engrafted under all the conditions (FIG. 29). Accordingly, these cell sheets were fixed in 4% PFA, and frozen sections were prepared. These frozen sections were subjected to immunostaining using DAPI and anti-Zo-1 antibody (trade name: Anti Zo-1 Antibody, manufactured by Invitrogen Corp.) and anti-collagen IV antibody (Abcam plc). These immunostained sections were observed under a confocal laser scanning fluorescence microscope.

[3] = system: single cell suspension of dispersed retinal cells (KhES-1-derived); experiment: Layer structure formation-promoting factor: reformed aggregates, immunostained sections (Example 3); conditions: 3 μM CHIR99021
Description: The aggregates of Day 26 from initiation of the suspension culture prepared as in Example 1 were washed with PBS, and a neuronal cell dispersion solution (manufactured by FUJIFILM Wako Pure Chemical Corp.) was added. After incubation at 37° C., they were dispersed into single cells by pipetting. These cells were suspended in 100 μL of a serum-free medium so as to become 3.0×10^4 cells per well of a non-cell adhesive 96-well culture plate (trade name: PrimeSurface 96-well V-bottom plate, manufactured by Sumitomo Bakelite Co., Ltd.), and suspension-cultured at 37° C. and 5% CO2.
The aggregates of Day 15 (corresponding to Differentiation Day 41) and Day 28 (corresponding to Differentiation Day 54) after suspension culture for aggregate reforming were fixed in 4% PFA, and frozen sections were prepared. These frozen sections were subjected to immunostaining using DAPI and anti-Chx10 antibody (trade name: Anti CHX10 Antibody, Exalpha Biologicals Inc.), anti-β-catenin antibody (R&D Systems, Inc.), anti-collagen IV antibody (Abcam plc), anti-Zo-1 antibody (Invitrogen Corp.), anti-Ki67 antibody (Becton, Dickinson and Company), anti-Pax6 antibody (BioLegend, Inc.), anti-RxR-γ (RxRg) antibody (Spring Bioscience Corp.), anti-CRX antibody (Abnova Corp.), anti-NRL antibody (R&D Systems, Inc.), anti-recoverin antibody (manufactured by Proteintech Group, Inc.), anti-Islet-1 antibody (Developmental Studies Hybridoma Bank (DSHB)), anti-GS antibody (Sigma-Aldrich Co., LLC), anti-Brn3 antibody (Santa Cruz Biotechnology), and anti-calretinin antibody (R&D Systems, Inc.).
These immunostained sections were observed under a bright field microscope and a fluorescence microscope (BZ-X810 manufactured by Keyence Corp.) and a confocal laser scanning fluorescence microscope (SP-8 manufactured by Leica), and the results are shown in FIGS. 11 to 20. […] From FIGS. 19 and 20, it was confirmed that RxR-Y(RxRg)-positive and CRX-positive cone progenitor cells and recoverin-positive and CRX-positive photoreceptor progenitor cells were differentiated, and the differentiation of Islet-1-positive and Brn3-positive retinal ganglion cells and calretinin-positive amacrine cells was also confirmed.

[4] = system: retinal cells (NR) dispersed into single cells (KhES-1-derived, dd33); experiment: Seeding onto Transwell: concentration and addition period of CHIR99021 (Example 10); conditions: 1 μM to 9 μM CHIR99021 for 3 days to 9 days
Description: as §1, with “33 days (dd33) after the start” for “Days 15 to 30 from initiation”, “pipetting. […] 3 days or later from seeding, the medium was replaced once every 3 to 4 days.” for “pipetting.”
Accordingly, these cell sheets were fixed in 4% PFA, and frozen sections were prepared. These frozen sections were subjected to immunostaining using DAPI.

## Cc1c[nH]c(-c2cnc(NCCNc3ccc(C#N)cn3)nc2-c2ccc(Cl)cc2Cl)n1 [CHIR99021]
[1]
  size of reformed aggregates versus only Y-27632: larger aggregates were reformed
[2]
  apical and basal polarity of sheet: sheets of Rx::Venus-positive retinal progenitor cells having apical and basal polarities were formed again
[3]; Day 1, Day 14, Day 28
  reforming of aggregates: aggregates were reformed
[3]; Day 15 and Day 28 sections
  apical-basal polarity (Zo-1, collagen IV): epithelial tissue having apical and basal polarities was formed
  layer structure formation (Rx::Venus, Chx10): a layer structure where Rx::Venus-positive and Chx10-positive neural retinal progenitor cells were contained was formed
[4]
  reforming of thick sheets: thick sheets of Rx::Venus-positive retinal progenitor cells were reformed
